Data set [1] concerns MCF-7 ER+ breast cancer cells. In words: XTT cell growth assay, MCF-7 ER+. Type of data set: cell-based, human. As to conditions: NS = not statistically significant; for inhibition at 50 µM: Homo sapiens, MCF7, 24 h, read-out: Effectiveness to suppress MCF7 cell growth (cell growth inhibition). The essentials: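 MCF-7 ER+ cells grown 24 h in DMEM, then given 5, 10 or 50 μM compound in serum-free DMEM for 24 h. XTT reagent added for 4 h. Absorbance read at 450 nm with 630 nm reference; serum-free DMEM alone as negative control.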
(In general: Tetrazolium dyes change colour on reduction, which living cells bring about.)

The subject of data set [2] is MDA-MB-231 triple negative breast cancer cells. Nature of the data set: XTT cell growth assay, MDA-MB-231. The data set is classed as cell-based, human. As to conditions: NS = not statistically significant; for inhibition at 50 µM: Homo sapiens, MDA-MB-231, 24 h, read-out: Effectiveness to suppress MDA-MB-231 cell growth (cell growth inhibition). The essentials: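 Cells grown 24 h in DMEM, then exposed 24 h to 5, 10 and 50 μM compound in serum-free DMEM. Viability read by XTT reduction to formazan after 4 h, absorbance at 450 nm with 630 nm reference; serum-free DMEM alone as negative control.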

The nature of data set [3]: Deoxyribose degradation assay (hydroxyl radical scavenging). Type of data set: biochemical. The settings on record: NS = not statistically significant. The essentials: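 Hydroxyl radicals from Fenton's reaction degrade 2-deoxyribose. Scavenging is measured as inhibition of this oxidation, read spectrophotometrically as pink chromogen absorbance at 532 nm.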
In the next data set the test system is pACLY (S455). In words: ELISA of pACLY (S455) / ACLY enzymatic activity in PANC-1 cells. The data set is classed as cell-based, human. As to conditions: 5 μM. As for the experimental part:
ELISA assay was used to evaluate the effect of GS compounds on protein activity levels in PANC-1 cancer cells. PANC-1 cells were serum-starved overnight and then treated with rIGF1 (100 ng/mL) for 24 hours, with or without GS27 (5 μM). The levels of the following proteins were evaluated by ELISA assay: a) p70 S6 (T389) (cat no. 54164C, Cell Signaling); b) pAKT (S473), (cat no. 80895, Cell Signaling); c) pACLY (S455), (cat no. okag1672, Avivasysbio); d) pAMPK (T172) (cat no. 7959C, Cell Signaling) and e) p65/NFKB (S536), (cat no. 7173, Cell Signaling).
PANC-1 is a human pancreatic ductal adenocarcinoma cell line derived from the carcinoma of a person.
The molecular mechanism of action of GS27, a compound that has exerted potent anti-cancer activity in different cancer cell lines including pancreatic cancer cells, was investigated. Oleacein has been implicated to have anti-inflammatory and metabolic effects, thus the potential effects of GS27 in different metabolic and inflammatory pathways were evaluated. Specifically, the protein levels of p70 S6 (T389), pAKT (S473), pACLY (S455), pAMPK (T172) and p65/NFKB (S536) were evaluated by ELISA assay in PANC-1 pancreatic cancer cells treated with 5 μM GS27. GS27 reduced p70 S6 and AKT phosphorylation levels, while it increased AMPK phosphorylation.
The effects of different GS compounds on ACLY enzymatic activity were evaluated by ELISA assay in PANC-1 pancreatic cancer cells. […] This finding is unexpected, since GS21 has a very similar structure with GS27, with the only difference being the presence of an oxygen atom in ester GS21 instead of a sulfur atom in thioester GS27.
On the technique in general: ELISA stands for enzyme-linked immunosorbent assay.

Usually inhibition stands for the change of the read-out against control, counted positive when it falls.

SMILES strings stand for the structures. “Also recorded” adds a separate entry of the source.

On to `C/C=C1/[C@H](OC2OC(CO)C(O)C(O)C2O)OC=C(C(=O)O)[C@H]1CC(=O)OCCc1ccc(O)c(O)c1` (stereo in doubt) [GS6, (2S,4S,E)-4-(2-(3,4-dihydroxyphenethoxy)-2-oxoethyl)-3-ethylidene-2{[(2R,3S,4R,5R,6S)-3,4,5-trihydroxy-6-(hydroxymethyl)tetrahydro-2H-pyran-2-yl]oxy}-3,4dihydro-2H-pyran-5-carboxylic acid], for which the inhibition at 50 µM in data set [1] worked out at 24.8%; in data set [2] it was 45.3%. In data set [3], the “Deoxyribose Degradation Assay IC50” value was found to be 41.9 μg extract/mL.

As for `C/C=C1/[C@H](O[C@@H]2O[C@H](CO)[C@@H](O)[C@H](O)[C@H]2O)OC=C(C(=O)OC)[C@H]1CC(=O)OCCc1ccc(O)c(O)c1` [GS1, oleuropein], the inhibition at 50 µM in data set [2] amounted to 48.3%. In addition, the “Deoxyribose Degradation Assay IC50” value in data set [3] was 80.8 μg extract/mL.

On to `C/C=C(/C=O)[C@@H](CC=O)CC(=O)OCCc1ccc(O)c(O)c1` [GS17, (3S,4E)-4-formyl-3-(2-oxoethyl)-4-hexenoic acid 2-(3,4-dihydroxyphenyl)ethyl ester, reference compound], for which the inhibition at 50 µM in data set [1] amounted to 35.2%; in data set [2], 47.6%. In addition, the “Deoxyribose Degradation Assay IC50” value in data set [3] is listed as 21.7 μg extract/mL.

Take `C/C=C(/C=O)[C@@H](CC=O)CC(=O)OCCc1ccc(O)cc1` [GS19, (3S,4E)-4-formyl-3-(2-oxoethyl)-4-hexenoic acid 2-(4-hydroxyphenyl)ethyl ester, reference compound]: the inhibition at 50 µM in data set [2] turned out to be 55%. The “Deoxyribose Degradation Assay IC50” value in data set [3] came out at 31.9 μg extract/mL.

Take `C/C=C(/C=O)[C@@H](CC=O)CC(=O)OCCOc1ccccc1` [GS24, (3S,4E)-4-formyl-3-(2-oxoethyl)-4-hexenoic acid 2-phenoxyethyl ester]: the inhibition at 50 µM in data set [1] amounted to 60.5%; in data set [2], 80.5%. In data set [2] (50 uM, 24 h), the “Effectiveness to suppress MDA-MB-231 cell growth (cell growth inhibition)” value is given as “highest suppressive activity”. Moreover, the “Deoxyribose Degradation Assay IC50” value in data set [3] came to 16.1 μg extract/mL. Further, in the data set with pACLY (S455), the “ACLY enzymatic activity (ELISA)” value is “small effect”.

On to `C/C=C(/C=O)[C@@H](CC=O)CC(=O)OCCCCCCCCCCCCCCCC` [GS26, (3S,4E)-4-formyl-3-(2-oxoethyl)-4-hexenoic acid hexadecyl ester], for which the inhibition at 50 µM in data set [1] was 61%; in data set [2], 47.6%. In addition, the “Deoxyribose Degradation Assay IC50” value in data set [3] is reported as 21.3 μg extract/mL. For the same compound, in the data set on pACLY (S455), the “ACLY enzymatic activity (ELISA)” value is listed as “did not show any effect”.

`C/C=C(/C=O)[C@@H](CC=O)CC(=O)SCCc1ccccc1` [GS27, S-phenethyl (3S,4E)-4-formyl-3-(2-oxoethyl)hex-4-enethioate]: the “Effectiveness to suppress MCF7 cell growth (cell growth inhibition)” value in data set [1] (50 uM, 24 h) is recorded as “best efficacy”. For the same compound, the inhibition at 50 µM was determined as 83.2% in data set [1] and 61.4% in data set [2]. The “Deoxyribose Degradation Assay IC50” value in data set [3] was found to be 16.4 μg extract/mL. The “ACLY enzymatic activity (ELISA)” value with pACLY (S455) is recorded as “dramatic effect on reducing; also recorded: substantially reducing”.

As to `C/C=C(/C=O)[C@@H](CC=O)CC(=O)OCCCSC` [GS28, (3S,4E)-4-formyl-3-(2-oxoethyl)-4-hexenoic acid 3-(methylthio)propyl ester], the figures for the inhibition at 50 µM in data set [1] and in data set [2] were 48.7% and 47.8%, respectively. Moreover, in data set [3], the “Deoxyribose Degradation Assay IC50” value amounted to 12.3 μg extract/mL. Moreover, in the data set with pACLY (S455), the “ACLY enzymatic activity (ELISA)” value is “did not show any effect”.

Source of the values: patent US12414960B2, “Analogues of oleuropein and oleacein and uses thereof” (Attica Sciences Ltd., priority 2020, dated 2025).
